Patent publication US4470976A, “Poly-cation salt of 4-O-polyhexaose-thio-arylene sulfates” (American Cyanamid Company, priority 1983, dated 1984)
Where a name gives a salt, the structure may show the parent alone. Read-outs that look alike come from different tables or passages of the source. One block for each compound: values may come before it.

Tests used:
activated human C1 = activated human C1 (Homo sapiens, UniProt P09871); assay: Test Code 026 (C1 inhibitor); format: biochemical; details: serial dilution assay, twofold dilutions; higher well number indicates higher activity
[1] = system: late components of human complement (C3-C9); assay: Test Code 035 (C3-C9 inhibitor), lysis of EAC 142; format: biochemical; details: serial dilution assay, twofold dilutions; higher well number indicates higher activity
[2] = system: serum complement activity; assay: Guinea Pig Intraperitoneal Test (GPIP); format: in vivo; details: Cavia porcellus, ip, 200 mg/kg i.p.
Method: The concentration of compound inhibiting 50% is reported; and (iv) Guinea Pig Intraperitoneal Test (GPIP): Guinea pigs weighing about 300 g are dosed intraperitoneally (i.p.) with 200 mg/kg of the test compound dissolved in saline and adjusted to pH 7-8. Approximately 0.4 ml blood samples, taken by orbital sinus puncture 2 hours and 6 hours after injections, are collected directly into centifuge tubes; 5 ml blood samples, taken by decapitation 24 hours after injection, are collected directly into beakers. The samples are allowed to clot, centrifuged, and the resultant sera are assayed for complement activity using the capillary complement assay. Percent inhibition is calculated by comparison with simultaneous controls.

human serum complement = details: both in vitro and in vivo; cited from earlier work
[3] = serum complement 2 hours after injection, read-out: In vivo Activity Guinea Pig % Inhibition Intraperitoneal, 2 hours
[4] = serum complement 6 hours after injection, read-out: In vivo Activity Guinea Pig % Inhibition Intraperitoneal, 6 hours
[5] = serum complement 24 hours after injection, read-out: In vivo Activity Guinea Pig % Inhibition Intraperitoneal, 24 hours

In vitro Activity C1 026 Wells (activated human C1): 5 Wells
Compound: 4-(Sulfanilamido)phenyl 2,3,6-tri-O-sulfo-4-O-(2,3,4,6-tetra-O-sulfo-α-D-glucopyranosyl)-1-thio-β-D-glucopyranoside octasodium salt

In vitro Activity C1 026 Wells (activated human C1): 11 Wells
Compound: O=S(=O)(O)OC[C@H]1O[C@@H]([S+]([O-])c2cc(OS(=O)(=O)O)ccc2OS(=O)(=O)O)[C@H](OS(=O)(=O)O)[C@@H](OS(=O)(=O)O)[C@@H]1O[C@H]1O[C@H](COS(=O)(=O)O)[C@@H](OS(=O)(=O)O)[C@H](OS(=O)(=O)O)[C@H]1OS(=O)(=O)O (stereo partly drawn) [2,5-Bis(sulfooxy)phenyl 2,3,6-tri-O-sulfo-4-O-(2,3,4,6-tetra-O-sulfo-α-D-glucopyranosyl)-1-sulfinyl-β-D-glucopyranoside nonasodium salt]
In vitro Activity C-Late 035 Wells [1]: 2 Wells

Compound: O=S(=O)([O-])OC[C@H]1O[C@@H](Sc2cc(OS(=O)(=O)[O-])ccc2OS(=O)(=O)[O-])[C@H](OS(=O)(=O)[O-])[C@@H](OS(=O)(=O)[O-])[C@@H]1O[C@H]1O[C@H](COS(=O)(=O)[O-])[C@@H](OS(=O)(=O)[O-])[C@H](OS(=O)(=O)[O-])[C@H]1OS(=O)(=O)[O-].[Na+].[Na+].[Na+].[Na+].[Na+].[Na+].[Na+].[Na+].[Na+] [2,5-Bis(sulfooxy)phenyl 2,3,6-tri-O-sulfo-4-O-(2,3,4,6-tetra-O-sulfo-α-D-glucopyranosyl)-1-thio-β-D-glucopyranoside nonasodium salt]
In vitro Activity C1 026 Wells (activated human C1): 9 Wells
In vitro Activity C-Late 035 Wells [1]: 2 Wells
inhibition at 200 mg/kg [2, 3]: 83%
inhibition at 200 mg/kg [2, 4]: 77%

Compound: O=C([O-])c1ccccc1S[C@@H]1O[C@H](COS(=O)(=O)[O-])[C@@H](O[C@H]2O[C@H](COS(=O)(=O)[O-])[C@@H](OS(=O)(=O)[O-])[C@H](OS(=O)(=O)[O-])[C@H]2OS(=O)(=O)[O-])[C@H](OS(=O)(=O)[O-])[C@H]1OS(=O)(=O)[O-].[Na+].[Na+].[Na+].[Na+].[Na+].[Na+].[Na+].[Na+] [2-Carboxyphenyl 2,3,6-tri-O-sulfo-4-O-(2,3,4,6-tetra-O-sulfo-α-D-glucopyranosyl)-1-thio-β-D-glucopyranoside octasodium salt]
In vitro Activity C1 026 Wells (activated human C1): 8 Wells

Compound: O=S(=O)(O)OC[C@H]1O[C@@H](Sc2cccc(S)c2)[C@H](OS(=O)(=O)O)[C@@H](OS(=O)(=O)O)[C@@H]1O[C@H]1O[C@H](COS(=O)(=O)O)[C@@H](OS(=O)(=O)O)[C@H](OS(=O)(=O)O)[C@H]1OS(=O)(=O)O.[Na+].[Na+].[Na+].[Na+].[Na+].[Na+].[Na+].[Na+] [3-Mercaptophenyl 2,3,6-tri-O-sulfo-4-O-(2,3,4,6-tetra-O-sulfo-α-D-glucopyranosyl)-1-thio-β-D-glucopyranoside octasodium salt]
In vitro Activity C1 026 Wells (activated human C1): 11 Wells
In vitro Activity C-Late 035 Wells [1]: 3 Wells

Compound: O=S(=O)([O-])OC[C@H]1O[C@@H](Sc2cccc(C(F)(F)F)c2)[C@H](OS(=O)(=O)[O-])[C@@H](OS(=O)(=O)[O-])[C@@H]1O[C@H]1O[C@H](COS(=O)(=O)[O-])[C@@H](OS(=O)(=O)[O-])[C@H](OS(=O)(=O)[O-])[C@H]1OS(=O)(=O)[O-].[Na+].[Na+].[Na+].[Na+].[Na+].[Na+].[Na+] [3-Trifluoromethylphenyl 2,3,6-tri-O-sulfo-4-O-(2,3,4,6-tetra-O-sulfo-α-D-glucopyranosyl)-1-thio-β-D-glucopyranoside heptasodium salt]
In vitro Activity C1 026 Wells (activated human C1): 5 Wells

In vitro Activity C1 026 Wells (activated human C1): 8 Wells
Compound: CCOC(=O)C(=O)Nc1ccc(S[C@@H]2O[C@H](COS(=O)(=O)O)[C@@H](O[C@H]3O[C@H](COS(=O)(=O)O)[C@@H](OS(=O)(=O)O)[C@H](OS(=O)(=O)O)[C@H]3OS(=O)(=O)O)[C@H](OS(=O)(=O)O)[C@H]2OS(=O)(=O)O)cc1 [4-(Ethoxyoxalylamino)phenyl 2,3,6-tri-O-sulfo-4-O-(2,3,4,6-tetra-O-sulfo-α-D-glucopyranosyl)-1-thio-β-D-glucopyranoside heptasodium salt]
inhibition at 200 mg/kg [2, 3]: 81%
inhibition at 200 mg/kg [2, 4]: 71%
inhibition at 200 mg/kg [2, 5]: 32%

Compound: Nc1ccc(S[C@@H]2O[C@H](COS(=O)(=O)[O-])[C@@H](O[C@H]3O[C@H](COS(=O)(=O)[O-])[C@@H](OS(=O)(=O)[O-])[C@H](OS(=O)(=O)[O-])[C@H]3OS(=O)(=O)[O-])[C@H](OS(=O)(=O)[O-])[C@H]2OS(=O)(=O)[O-])cc1.[Na+].[Na+].[Na+].[Na+].[Na+].[Na+].[Na+] [4-Aminophenyl 2,3,6-tri-O-sulfo-4-O-(2,3,4,6-tetra-O-sulfo-α-D-glucopyranosyl)-1-thio-β-D-glucopyranoside heptasodium salt]
In vitro Activity C1 026 Wells (activated human C1): 9 Wells
inhibition at 200 mg/kg [2, 3]: 61%
inhibition at 200 mg/kg [2, 4]: 19%
inhibition at 200 mg/kg [2, 5]: 42%

Compound: O=S(=O)([O-])OC[C@H]1O[C@@H](Sc2ccc(F)cc2)[C@H](OS(=O)(=O)[O-])[C@@H](OS(=O)(=O)[O-])[C@@H]1O[C@H]1O[C@H](COS(=O)(=O)[O-])[C@@H](OS(=O)(=O)[O-])[C@H](OS(=O)(=O)[O-])[C@H]1OS(=O)(=O)[O-].[Na+].[Na+].[Na+].[Na+].[Na+].[Na+].[Na+] [4-Fluorophenyl 2,3,6-tri-O-sulfo-4-O-(2,3,4,6-tetra-O-sulfo-α-D-glucopyranosyl)-1-thio-β-D-glucopyranoside heptasodium salt]
In vitro Activity C1 026 Wells (activated human C1): 8 Wells

Compound: COc1ccc(S[C@@H]2O[C@H](COS(=O)(=O)[O-])[C@@H](O[C@H]3O[C@H](COS(=O)(=O)[O-])[C@@H](OS(=O)(=O)[O-])[C@H](OS(=O)(=O)[O-])[C@H]3OS(=O)(=O)[O-])[C@H](OS(=O)(=O)[O-])[C@H]2OS(=O)(=O)[O-])cc1.[Na+].[Na+].[Na+].[Na+].[Na+].[Na+].[Na+] [4-Methoxyphenyl 2,3,6-tri-O-sulfo-4-O-(2,3,4,6-tetra-O-sulfo-α-D-glucopyranosyl)-1-thio-β-D-glucopyranoside heptasodium salt]
In vitro Activity C1 026 Wells (activated human C1): 4 Wells

Compound: O=S(=O)([O-])OC[C@H]1O[C@@H](Sc2ccc(OS(=O)(=O)[O-])cc2)[C@H](OS(=O)(=O)[O-])[C@@H](OS(=O)(=O)[O-])[C@@H]1O[C@H]1O[C@H](COS(=O)(=O)[O-])[C@@H](OS(=O)(=O)[O-])[C@H](OS(=O)(=O)[O-])[C@H]1OS(=O)(=O)[O-].[Na+].[Na+].[Na+].[Na+].[Na+].[Na+].[Na+].[Na+] [4-Sulfooxyphenyl 2,3,6-tri-O-sulfo-4-O-(2,3,4,6-tetra-O-sulfo-α-D-glucopyranosyl)-1-thio-β-D-glucopyranoside octasodium salt]
In vitro Activity C1 026 Wells (activated human C1): 8 Wells

Compound: CC(=O)Nc1ccc(S[C@@H]2O[C@H](COS(=O)(=O)O)[C@@H](O[C@@H]3O[C@H](COS(=O)(=O)O)[C@@H](OS(=O)(=O)O)[C@H](OS(=O)(=O)O)[C@H]3OS(=O)(=O)O)[C@H](OS(=O)(=O)O)[C@H]2OS(=O)(=O)O)cc1 [4-acetamidophenyl 2,3,6-tri-O-sulfo-4-O-(2,3,4,6-tetra-O-sulfo-β-D-glucopyranosyl)-1-thio-β-D-glucopyranoside heptasodium salt]
inhibition at 200 mg/kg [2, 3]: 86%
inhibition at 200 mg/kg [2, 4]: 66%
inhibition at 200 mg/kg [2, 5]: 15%

Compound: pentosan-polysulfoester
anticomplementary activity, judged by the reduction in total hemolytic complement activity (human serum complement): has an anticomplementary activity on human serum, both in vitro and in vivo
